Measurements: US11453647B2, “Benzimidazole derivatives as adenosine receptor antagonists” (Merck Patent GmbH, priority 2017, dated 2022)

How the values were obtained:
Assay type in all cases: cell-based
[1] = target: T1, human A1 receptor (Homo sapiens, UniProt P30542); assay: functional cAMP (HTRF) assay, recombinant CHO cells expressing human A1 receptor, forskolin, agonist CPA
T1 construct: expressed in transfected cells; host or cells: CHO
T1 sequence (P30542 1-326): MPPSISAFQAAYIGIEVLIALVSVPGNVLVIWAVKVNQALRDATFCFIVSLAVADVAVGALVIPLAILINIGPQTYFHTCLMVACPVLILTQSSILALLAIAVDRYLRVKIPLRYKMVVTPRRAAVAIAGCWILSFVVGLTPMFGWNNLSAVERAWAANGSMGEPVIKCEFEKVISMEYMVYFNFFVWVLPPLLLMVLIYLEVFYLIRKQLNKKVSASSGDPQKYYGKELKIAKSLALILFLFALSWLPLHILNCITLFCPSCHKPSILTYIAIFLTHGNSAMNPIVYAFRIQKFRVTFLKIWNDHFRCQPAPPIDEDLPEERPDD
Method: The functional activities of human A2A, A2B, A1 and A3 receptors were determined by quantification of cAMP, being the second messenger for adenosine receptors.
For human A1 and A3 receptors, recombinant CHO cells, expressing either A1 or A3-receptor, were used. As both receptors couple to Gi proteins, the assay protocol was adapted:
Cells were seeded into 384-well plates, forskolin, test compounds and agonists (CPA for A1- and IB-MECA for A3-receptor) were added. After 30 min incubation, HTRF reagents (cAMP dynamic 2, Cis Bio) were added and the cellular cAMP levels were determined using the ENVISION (Perkin Elmer) plate reader. Obtained raw data were normalized against the inhibitor control and the neural control (DMSO) and the normalized data were fitted using GeneData software.

[2] = target: T2, human A3 receptor (Homo sapiens, UniProt P0DMS8); assay: functional cAMP (HTRF) assay, recombinant CHO cells expressing human A3 receptor, forskolin, agonist IB-MECA
T2 construct: expressed in transfected cells; host or cells: CHO
T2 sequence (P0DMS8 1-318): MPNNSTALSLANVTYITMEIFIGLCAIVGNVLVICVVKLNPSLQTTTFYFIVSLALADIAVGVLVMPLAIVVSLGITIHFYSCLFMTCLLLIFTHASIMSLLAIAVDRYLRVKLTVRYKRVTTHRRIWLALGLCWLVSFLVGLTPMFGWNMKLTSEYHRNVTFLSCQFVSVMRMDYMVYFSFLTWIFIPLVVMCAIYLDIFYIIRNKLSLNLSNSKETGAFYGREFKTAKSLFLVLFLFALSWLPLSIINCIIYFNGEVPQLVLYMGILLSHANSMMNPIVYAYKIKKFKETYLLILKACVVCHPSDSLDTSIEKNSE
Summary of the method: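 CHO cells (hA1 or hA3) + forskolin + test cpd + agonist (CPA/A1, IB-MECA/A3), 30 min; HTRF cAMP readout; normalized vs inhibitor and DMSO controls, curve fit.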

[3] = target: T3, human A2A receptor (Homo sapiens, UniProt P29274); assay: functional cAMP (HTRF) assay, recombinant HEK293 cells expressing human A2A receptor, agonist NECA
T3 construct: expressed in transfected cells; host or cells: HEK293

[4] = target: T4, A2B receptors (Homo sapiens, UniProt P29275); assay: functional cAMP (HTRF) assay, recombinant HEK293 cells expressing human A2B receptor, agonist NECA; design: expressed in transfected cells; host or cells: HEK293
T4 sequence (P29275 1-332): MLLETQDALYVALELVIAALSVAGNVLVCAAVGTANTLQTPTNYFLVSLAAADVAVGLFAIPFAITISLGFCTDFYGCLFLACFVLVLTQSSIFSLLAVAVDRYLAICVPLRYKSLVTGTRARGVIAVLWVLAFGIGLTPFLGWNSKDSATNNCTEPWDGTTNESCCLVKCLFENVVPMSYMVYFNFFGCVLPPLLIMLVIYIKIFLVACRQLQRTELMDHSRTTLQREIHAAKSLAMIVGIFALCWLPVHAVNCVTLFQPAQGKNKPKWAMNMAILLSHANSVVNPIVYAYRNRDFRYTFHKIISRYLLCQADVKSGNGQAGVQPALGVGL

T3 sequence (P29274 whole entry): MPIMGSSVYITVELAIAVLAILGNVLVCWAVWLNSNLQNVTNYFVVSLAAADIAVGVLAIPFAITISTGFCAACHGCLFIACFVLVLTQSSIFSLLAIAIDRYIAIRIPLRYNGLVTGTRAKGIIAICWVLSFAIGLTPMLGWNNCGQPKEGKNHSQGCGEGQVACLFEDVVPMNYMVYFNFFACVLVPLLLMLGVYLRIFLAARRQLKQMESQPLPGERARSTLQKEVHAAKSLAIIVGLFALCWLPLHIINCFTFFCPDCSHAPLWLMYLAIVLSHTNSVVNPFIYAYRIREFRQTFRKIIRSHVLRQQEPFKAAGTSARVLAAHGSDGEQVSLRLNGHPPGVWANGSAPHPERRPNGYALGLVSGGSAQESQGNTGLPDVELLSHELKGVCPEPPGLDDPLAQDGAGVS

SMILES | IC50 [1] [µM] | IC50 [2] [µM] | IC50 [3] [µM] | IC50 [4] [µM]
COc1ccc(-c2ccccc2)c2nc(NC(=O)c3ccnc(N4CCOCC4)c3)[nH]c12 [compound 7, N-(7-Methoxy-4-phenyl-1H-benzoimidazol-2-yl)-2-morpholin-4-yl-isonicotinamide] | > 1 | < 0.1 | < 0.01 | < 1
COc1ccc(-c2ccccc2)c2nc(NC(=O)c3ccc(N4CCOCC4)nc3)[nH]c12 [compound 8, N-(7-Methoxy-4-phenyl-1H-benzoimidazol-2-yl)-6-morpholin-4-yl-nicotinamide] | > 1 | < 1 | < 0.01 | > 1
COc1ccc(-c2ccccc2)c2nc(NC(=O)c3ccc(CN)cc3)[nH]c12 [compound 13, 4-Aminomethyl-N-(7-methoxy-4-phenyl-1H-benzoimidazol-2-yl)-benzamide] | > 1 | < 1 | < 0.01 | < 1
COc1ccc(C2CCCCC2)c2nc(NC(=O)N3CCC(C)(O)CC3)[nH]c12 [compound 16, 4-Hydroxy-4-methyl-piperidine-1-carboxylic acid (4-cyclohexyl-7-methoxy-1H-benzoimidazol-2-yl)-amide] | > 1 | < 1 | < 0.01 | > 1
COc1ccc(-c2cnn(C)c2)c2nc(NC(=O)c3ccnc(N4CCOCC4)c3)[nH]c12 [compound 26, N-[7-Methoxy-4-(1-methyl-1H-pyrazol-4-yl)-1H-benzoimidazol-2-yl]-2-morpholin-4-yl-isonicotinamide] | > 1 | < 1 | < 0.01 | > 1
COc1ccc(-c2cnn(C)c2)c2nc(NC(=O)c3ccc(CN(C)C)cc3)[nH]c12 [compound 48, 4-[(dimethylamino)methyl]-N-[7-methoxy-4-(1-methyl-1H-pyrazol-4-yl)-1H-1,3-benzodiazol-2-yl]benzamide] | > 1 | > 1 | < 0.01 | > 1
COCc1ccc(C(=O)Nc2nc3c(-c4cnn(C)c4)ccc(OC)c3[nH]2)cc1 [compound 49, N-[7-methoxy-4-(1-methyl-1H-pyrazol-4-yl)-1H-1,3-benzodiazol-2-yl]-4-(methoxymethyl)benzamide] | > 1 | < 0.1 | < 0.01 | < 1
COc1ccc(-c2cnn(C)c2)c2nc(NC(=O)N3CCC(Oc4ccccc4)CC3)[nH]c12 [compound 54, N-[7-methoxy-4-(1-methyl-1H-pyrazol-4-yl)-1H-1,3-benzodiazol-2-yl]-4-phenoxypiperidine-1-carboxamide] | < 1 | > 1 | < 0.1 | < 1
COc1ccc(N2CCOCC2)c2nc(NC(=O)c3ccc(F)cc3)[nH]c12 [compound 63, 4-fluoro-N-[7-methoxy-4-(morpholin-4-yl)-1H-1,3-benzodiazol-2-yl]benzamide] | > 1 | < 0.1 | < 0.01 | < 1
COc1ccc(N2CCOCC2)c2nc(NC(=O)c3ccc(Cn4ccnc4)cc3)[nH]c12 [compound 76, 4-[(1H-imidazol-1-yl)methyl]-N-[7-methoxy-4-(morpholin-4-yl)-1H-1,3-benzodiazol-2-yl]benzamide] | > 1 | > 1 | < 0.01 | < 1
COc1ccc(-c2cn[nH]c2)c2nc(NC(=O)N3CCC(C)(O)CC3)[nH]c12 [compound 79, 4-hydroxy-N-[7-methoxy-4-(1H-pyrazol-4-yl)-1H-1,3-benzodiazol-2-yl]-4-methylpiperidine-1-carboxamide] | > 1 | > 1 | < 0.1 | < 1
COc1ccc(-c2cnn(C)c2)c2nc(NC(=O)c3ccc4occc4c3)[nH]c12 [compound 80, N-[7-methoxy-4-(1-methyl-1H-pyrazol-4-yl)-1H-1,3-benzodiazol-2-yl]-1-benzofuran-5-carboxamide] | > 1 | < 1 | < 0.1 | < 1
COc1ccc(-c2cnn(C)c2)c2nc(NC(=O)c3ccon3)[nH]c12 [compound 84, N-[7-methoxy-4-(1-methyl-1H-pyrazol-4-yl)-1H-1,3-benzodiazol-2-yl]-1,2-oxazole-3-carboxamide] | < 1 | < 1 | < 0.1 | < 1
COc1ccc(-c2ccncc2)c2nc(NC(=O)N3CCC4(COC4)C3)[nH]c12 [compound 85, N-[7-methoxy-4-(pyridin-4-yl)-1H-1,3-benzodiazol-2-yl]-2-oxa-6-azaspiro[3.4]octane-6-carboxamide] | > 1 | > 1 | < 0.1 | < 1
COc1ccc(N2CCOCC2)c2nc(NC(=O)c3cnn(C(CO)CCl)c3)[nH]c12 (stereo not drawn) [compound 86, 1-(1-chloro-3-hydroxypropan-2-yl)-N-[7-methoxy-4-(morpholin-4-yl)-1H-1,3-benzodiazol-2-yl]-1H-pyrazole-4-carboxamide] | > 1 | > 1 | < 0.01 | > 1
CCCC(CC)c1ccc(OC)c2[nH]c(NC(=O)c3cnn(C)c3)nc12 (stereo not drawn) [compound 233, N-[4-(hexan-3-yl)-7-methoxy-1H-1,3-benzodiazol-2-yl]-1-methyl-1H-pyrazole-4-carboxamide] | > 1 | < 0.01 | < 0.1 | –
COc1ccc(C2CCOCC2)c2nc(NC(=O)c3cnc(C)o3)[nH]c12 [compound 234, N-[7-methoxy-4-(oxan-4-yl)-1H-1,3-benzodiazol-2-yl]-2-methyl-1,3-oxazole-5-carboxamide] | > 1 | < 1 | < 0.01 | –
COc1ccc(-c2cnn(C3CCOC3)c2)c2nc(NC(=O)N3CCC(C)(O)CC3)[nH]c12 (stereo not drawn) [compound 241, 4-hydroxy-N-{4-methoxy-7-[1-(oxolan-3-yl)-1H-pyrazol-4-yl]-1H-1,3-benzodiazol-2-yl}-4-methylpiperidine-1-carboxamide] | > 1 | > 1 | < 0.1 | –
COc1ccc(-c2cnn(C3CN(C(=O)OC(C)(C)C)C3)c2)c2[nH]c(NC(=O)N3CCC(C)(O)CC3)nc12 [compound 245, tert-butyl 3-(4-{2-[(4-hydroxy-4-methylpiperidine-1-carbonyl)amino]-4-methoxy-1H-1,3-benzodiazol-7-yl}-1H-pyrazol-1-yl)azetidine-1-carboxylate] | > 1 | > 1 | < 0.1 | –
COc1ccc(-c2ccnc3[nH]ccc23)c2[nH]c(NC(=O)N3CCC(C)(O)CC3)nc12 [compound 270, 4-hydroxy-N-(7-methoxy-4-{1H-pyrrolo[2,3-b]pyridin-4-yl}-1H-1,3-benzodiazol-2-yl)-4-methylpiperidine-1-carboxamide] | > 1 | > 1 | < 0.1 | –
COc1ccc(-c2ccc3c(cnn3C)c2)c2nc(NC(=O)N3CCC(C)(O)CC3)[nH]c12 [compound 273, 4-hydroxy-N-[7-methoxy-4-(1-methyl-1H-indazol-5-yl)-1H-1,3-benzodiazol-2-yl]-4-methylpiperidine-1-carboxamide] | > 1 | > 1 | < 0.1 | –
COc1ccc(-c2cccc3c2CCN3)c2nc(NC(=O)N3CCC(C)(O)CC3)[nH]c12 [compound 292, N-[4-(2,3-dihydro-1H-indol-4-yl)-7-methoxy-1H-1,3-benzodiazol-2-yl]-4-hydroxy-4-methylpiperidine-1-carboxamide] | < 0.01 | > 1 | < 0.1 | –
